Source: US20060069132A1, “Azolecarboxamide herbicides” (priority 2004, published 2006)

Assays:
[1] = test system: yellow nutsedge; test: Test C pre-/postemergence herbicide test; assay type: in vivo, Cyperus esculentus; settings: for Nutsedge, Yellow plant response rating: 500 g ai/ha
In short: (§1)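 Preemergence: seeds planted and treated with compound in non-phytotoxic solvent with surfactant; postemergence: plants at 2 to 18 cm (1- to 4-leaf stage) sprayed likewise. Kept in greenhouse 12 to 14 days, then visually rated against controls, 0 (no effect) to 100 (complete control).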

[2] = test system: Surinam grass; test: Test C pre-/postemergence herbicide test; assay type: in vivo, Urochloa decumbens; settings: for Surinam Grass plant response rating: 500 g ai/ha
In short: as §1

[3] = test system: corn; test: Test C pre-/postemergence herbicide test; assay type: in vivo, Zea mays; settings: for Corn plant response rating: 500 g ai/ha
In short: as §1

[4] = test system: rice; test: Test C flooded paddy test; assay type: in vivo, Oryza sativa
In short: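 Plants were grown to the 1- to 4-leaf stage (2–18 cm) and then treated postemergence, or grown to the 2-leaf stage for the flooded paddy test. They were held in a greenhouse for 12 to 14 days and then scored by eye against controls, where 0 is no effect and 100 is complete control.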

[5] = test system: velvetleaf; test: Test A pre-/postemergence herbicide test; assay type: in vivo, Abutilon theophrasti
In short: (§2)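 Sandy loam soil given preemergence directed spray; plants at 2 to 10 cm, one- to two-leaf stage, sprayed to runoff postemergence, compounds in non-phytotoxic solvent with surfactant. Injury rated visually versus untreated controls after about ten greenhouse days, 0 (no effect) to 100 (complete control); dash means not tested.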

[6] = test system: giant foxtail; test: Test C pre-/postemergence herbicide test; assay type: in vivo, Setaria faberi; settings: for Foxtail, Giant plant response rating: 500 g ai/ha
In short: as §1

[7] = test system: woolly cupgrass; test: Test C pre-/postemergence herbicide test; assay type: in vivo, Eriochloa villosa; settings: for Cupgrass, Woolly plant response rating: 500 g ai/ha
In short: as §1

[8] = test system: lambsquarters; test: Test C pre-/postemergence herbicide test; assay type: in vivo, Chenopodium album
In short: as §1

[9] = test system: ducksalad; test: Test C flooded paddy test; assay type: in vivo, Heteranthera limosa
[10] = test system: morningglory; test: Test C pre-/postemergence herbicide test; assay type: in vivo, Ipomoea coccinea; design: key to Plant response rating, Morningglory: 0 = no effect, 100 = complete control; settings: for Morningglory plant response rating: 500 g ai/ha
In short: as §1

[11] = test system: smallflower umbrella sedge; test: Test C flooded paddy test; assay type: in vivo, Cyperus difformis
[12] = test system: common (oilseed) sunflower; test: Test C pre-/postemergence herbicide test; assay type: in vivo, Helianthus annuus
In short: as §1

[13] = test system: morningglory; test: Test A pre-/postemergence herbicide test; assay type: in vivo, Ipomoea spp.
In short: as §2

[14] = 125 g ai/ha, scale 0 (no effect) to 100 (complete control), visual, 12 to 14 days, preemergence
[15] = Postemergence, 250 g ai/ha, scale 0 to 100, 0 no effect, 100 complete control
[16] = Preemergence, scale 0 to 100, 0 no effect, 100 complete control
[17] = postemergence, 125 g ai/ha, scale 0 to 100
[18] = postemergence, 62 g ai/ha, scale 0 to 100
[19] = 250 g ai/ha, scale 0 to 100 (0 no effect, 100 complete control), visual, 12 to 14 days, preemergence
[20] = 62 g ai/ha, scale 0 to 100 (0 no effect, 100 complete control)
[21] = 125 g ai/ha, scale of 0 to 100, 0 is no effect, 100 is complete control
[22] = 250 g ai/ha, scale of 0 to 100, 0 is no effect, 100 is complete control
[23] = 500 g ai/ha, visual rating after 12 to 14 days, scale 0 to 100 (0 no effect, 100 complete control)
[24] = Postemergence, 500 g ai/ha, 0 to 100 scale, 0 no effect, 100 complete control
[25] = Postemergence, 2000 g ai/ha, 0 to 100 scale, 0 no effect, 100 complete control
[26] = Preemergence, 500 g ai/ha, visual rating, 0 to 100 scale (0 no effect, 100 complete control)

Q: What does the source list for CCOC(=O)c1cc(NC(=O)c2cc(C(C)(C)C)nn2CC)ccc1OC [Compound 96]?
A: Plant response rating (0 = no effect, 100 = complete control), Nutsedge, Yellow ([1]; 62 g ai/ha, preemergence): 0; Plant response rating, Nutsedge, Yellow [1, 14]: 0; Nutsedge, Yellow plant response rating ([1]; Postemergence, scale 0 to 100): 5; Plant response rating, Nutsedge, Yellow [1, 15]: 5; Nutsedge, Yellow plant response rating [1, 16]: 10; Plant response rating, Nutsedge, Yellow [1, 17]: 0; Plant response rating, Nutsedge, Yellow [1, 18]: 0; Plant response rating (0 = no effect, 100 = complete control), Surinam Grass ([2]; 62 g ai/ha, preemergence): 0; Plant response rating, Surinam Grass [2, 14]: 10; Surinam Grass plant response rating ([2]; Postemergence, scale 0 to 100): 60; Plant response rating, Surinam Grass [2, 15]: 40; Surinam Grass plant response rating [2, 16]: 65; Plant response rating, Surinam Grass [2, 17]: 40; Plant response rating, Surinam Grass [2, 18]: 0; Plant response rating (0 = no effect, 100 = complete control), Corn ([3]; 62 g ai/ha, preemergence): 15; Plant response rating, Corn [3, 14]: 15; Plant response rating, Corn [3, 19]: 30; Corn plant response rating ([3]; Postemergence, scale 0 to 100): 45; Plant response rating, Corn [3, 15]: 35; Corn plant response rating [3, 16]: 40; Plant response rating, Corn [3, 17]: 30; Plant response rating, Corn [3, 18]: 30; Rice plant response rating [4, 20]: 40; Rice plant response rating [4, 21]: 45; Rice plant response rating [4, 22]: 70; Plant response rating, Rice [4, 23]: 75; Velvetleaf plant response rating [5, 24]: 70; Plant response rating, Velvetleaf [5, 25]: 70; Velvetleaf plant response rating [5, 26]: 95; Velvetleaf plant response rating ([5]; Preemergence, 2000 g ai/ha, visual rating, 0 to 100 scale (0 no effect, 100 complete control)): 100; Plant response rating (0 = no effect, 100 = complete control), Foxtail, Giant ([6]; 62 g ai/ha, preemergence): 70; Plant response rating, Foxtail, Giant [6, 14]: 100; Plant response rating, Foxtail, Giant [6, 19]: 100; Foxtail, Giant plant response rating ([6]; Postemergence, scale 0 to 100): 60; Plant response rating, Foxtail, Giant [6, 15]: 45; Foxtail, Giant plant response rating [6, 16]: 100; Plant response rating, Foxtail, Giant [6, 17]: 20; Plant response rating, Foxtail, Giant [6, 18]: 10; Plant response rating (0 = no effect, 100 = complete control), Cupgrass, Woolly ([7]; 62 g ai/ha, preemergence): 5; Plant response rating, Cupgrass, Woolly [7, 14]: 10; Plant response rating, Cupgrass, Woolly [7, 19]: 20; Cupgrass, Woolly plant response rating ([7]; Postemergence, scale 0 to 100): 50; Plant response rating, Cupgrass, Woolly [7, 15]: 30; Cupgrass, Woolly plant response rating [7, 16]: 70; Plant response rating, Cupgrass, Woolly [7, 17]: 30; Plant response rating, Cupgrass, Woolly [7, 18]: 5; Lambsquarters plant response rating ([8]; Postemergence, 500 g ai/ha, scale 0 to 100): 100; Plant response rating, Lambsquarters [8, 15]: 95; Plant response rating, Lambsquarters [8, 17]: 80; Plant response rating, Lambsquarters [8, 18]: 60; Ducksalad plant response rating [9, 20]: 45; Ducksalad plant response rating [9, 21]: 45; Ducksalad plant response rating [9, 22]: 75; Plant response rating, Ducksalad [9, 23]: 90; Plant response rating (0 = no effect, 100 = complete control), Morningglory ([10]; 62 g ai/ha, preemergence): 0; Plant response rating, Morningglory [10, 14]: 50; Morningglory plant response rating ([10]; Postemergence, scale 0 to 100): 50; Plant response rating, Morningglory [10, 15]: 30; Morningglory plant response rating [10, 16]: 100; Plant response rating, Morningglory [10, 17]: 5; Plant response rating, Morningglory [10, 18]: 0; Sedge, Umbrella plant response rating [11, 20]: 90; Sedge, Umbrella plant response rating [11, 21]: 90; Sedge, Umbrella plant response rating [11, 22]: 90; Plant response rating, Sedge, Umbrella [11, 23]: 95; Plant response rating (0 = no effect, 100 = complete control), Sunflower ([12]; 62 g ai/ha, preemergence): 0; Plant response rating, Sunflower [12, 14]: 0; Sunflower plant response rating ([12]; Preemergence, 500 g ai/ha, scale 0 to 100, 0 no effect, 100 complete control): 35; Morningglory plant response rating [13, 24]: 10; Plant response rating, Morningglory [13, 25]: 15; Morningglory plant response rating [13, 26]: 25; Morningglory plant response rating ([13]; Preemergence, 2000 g ai/ha, 0 to 100 scale, 0 no effect, 100 complete control): 70
